{"source": "patent US6610703B1", "about": "“Method for treatment of glycolipid storage diseases” (G.D. Searle & Co., priority 1998, dated 2003)", "key": {"[1]": {"test_system": "Serum Protein", "experiment": "Imino sugar (N-alkyl DNJ) binding to serum protein", "format": "in vitro ADME", "conditions": "protein bound versus non-bound radioactivity (FIG. 14)", "excerpt": "The percentage compound radioactivity is plotted against N-alkyl chain length (C4 to C18) with the protein bound percentage shown by open circles and the non-bound percentage shown by filled circles. […] Short chain compounds (C4-C6) bind poorly but those larger than C10 are almost completely bound to protein."}, "[2]": {"experiment": "Organ distribution of radiolabelled compound in mouse after oral gavage", "format": "in vivo", "conditions": "for % recovered radioactivity, Brain / % recovered radioactivity, Liver: normal mouse, gavage; for distribution in mouse liver (deposition and clearance): oral gavage, 30, 60 and 90 minutes (FIG. 10)", "procedure": "Mouse body fluids and organs were collected for different times after gavage with radiolabelled compound. Radioactivity in each sample was determined and expressed as a percentage of radio-activity recovered. Solid bars, NN-DNJ, hatched bars, NB-DNJ.\nThe radioactivity recovered (%) is plotted against N-alkyl chain length (C4 to C18) for 30 minutes (clear bars), 60 minutes (shaded bars) and 90 minutes (filled, black bars). […] Short chain compounds (C4-C6) are rapidly cleared in a time-dependent manner. […] The C12 to C18 analogs show the reverse trend, i.e., reduced appearance in the liver but this increases with time.\nThe radioactivity recovered (%) is plotted against N-alkyl chain length (C4 to C18) for 30 minutes (clear bars), 60 minutes (shaded bars) and 90 minutes (filled, black bars).\nFIG. 12 is a series of four bar charts, A, B, C and D, in which radioactivity (cpm) found in the liver is plotted against time post gavage in hours (h) with four different N-alkyl analogs of deoxynojirimycin (DNJ). The four analogs shown are:; FIG. 12A, N-butyl(C4); FIG. 12B, N-nonyl (C9); FIG. 12C, N-dodecyl(C12); FIG. 12D, N-cis-13-octadecenyl (C18).\nFIG. 13 is a series of four bar charts, A, B, C and D, in which radioactivity (cpm) found in the brain is plotted against time post gavage in hours (h) with the same analog compounds as in FIG. 12. The four analogs shown are: FIG. 13A, N-butyl (C4); FIG. 13B, N-nonyl (C9); FIG. 13C, N-dodecyl (C12); FIG. 13D, N-cis-13-octadecenyl (C18).\nFurther evidence that longer alkyl chains are taken up much better has been obtained by in vivo studies with mouse."}, "[3]": {"test_system": "human myeloid (HL-60) cells", "experiment": "Inhibition of glycolipid biosynthesis in HL-60 cells (radiolabelled palmitic acid, TLC, scanning densitometry)", "format": "cell-based", "conditions": "for times more sensitive HL-60 cells than CHO cells: HL-60 versus CHO cells", "procedure": "Cells were cultured for four days in the presence of radiolabelled palmitic acid and the following concentrations of compound:\nAfter extraction the radioactively labelled glycolipids were separated by TLC and visualized by radioautography.\nChinese Hamster Ovary (CHO) cells and human myeloid (HL-60) cells grown in the presence of varying concentrations of inhibitor in addition to a precursor (radiolabelled palmitic acid) of glycolipid biosynthesis were treated with solvents to extract the glycolipids by the procedure described by Platt et al., J. Biol. Chem. 269, 8362-8365 (1994).\nThe radiolabelled lipids were separated by TLC (FIG. 1) and bands corresponding to glucosylceramide and lactosyl-ceramide were quantitated by scanning densitometry to estimate the reduction in glycolipid biosynthesis."}, "[4]": {"test_system": "glycolipid biosynthesis", "conditions": "according to U.S. Pat. No. 5,472,969, cited from earlier work; for dose required / activity against glycolipid biosynthesis: unit not given"}, "[5]": {"target": "T1, HL-60 cell ceramide glucosyltransferase (Homo sapiens, UniProt Q16739)", "T1 construct": "endogenous in cells; host or cells: HL-60 (human myeloid) cells", "T1 sequence (Q16739 1-394)": "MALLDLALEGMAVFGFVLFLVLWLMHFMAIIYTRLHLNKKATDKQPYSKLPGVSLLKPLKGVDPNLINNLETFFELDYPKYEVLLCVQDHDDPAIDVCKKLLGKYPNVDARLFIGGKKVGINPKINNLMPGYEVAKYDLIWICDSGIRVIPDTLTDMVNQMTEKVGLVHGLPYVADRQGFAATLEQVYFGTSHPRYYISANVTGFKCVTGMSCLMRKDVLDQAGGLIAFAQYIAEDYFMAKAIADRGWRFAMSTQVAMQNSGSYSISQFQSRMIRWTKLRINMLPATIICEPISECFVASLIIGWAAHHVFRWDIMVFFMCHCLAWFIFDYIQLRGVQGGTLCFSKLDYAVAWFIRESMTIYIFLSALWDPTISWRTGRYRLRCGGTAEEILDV", "experiment": "In vitro inhibition of HL-60 cell ceramide glucosyltransferase activity", "format": "biochemical", "conditions": "C4 to C18 series (FIG. 8)"}, "[6]": {"test_system": "CHO, MDBK and HepG2 cells", "experiment": "Cell-associated radioactivity (uptake) of radiolabelled compound in cultured cells", "format": "in vitro ADME", "conditions": "MDBK and HepG2, incubated up to 24 hours"}, "[7]": {"test_system": "Hepatitis B virus (HBV)", "conditions": "Block et al., Nature Medicine 1998; cited from earlier work"}}}
{"smiles": "CCCCCCCCN1CC(O)C(O)C(O)C1CO", "note": "(stereo not drawn) [C8]", "values": [{"measurement": "binding to serum protein", "setting": "[1]", "value": "favor equally, protein and solution phase"}]}
{"smiles": "CCCC/C=C\\CCCCCCCCCCCCN1C[C@H](O)[C@@H](O)[C@H](O)[C@H]1CO", "note": "[C18]", "values": [{"measurement": "deposition in the liver", "setting": "[2]; mouse, 24 h post gavage (FIG. 12)", "value": "significant deposition"}]}
{"smiles": "CCCCN1C[C@H](O)[C@@H](O)[C@H](O)[C@H]1CO", "note": "[N-butyl-DNJ, N-butyldeoxynojirimycin, reference compound]", "values": [{"measurement": "time after which the majority of radioactivity is found in the liver", "setting": "[2]; mouse, post gavage (FIG. 12)", "value": 1.5, "unit": "h"}, {"measurement": "% recovered radioactivity, Brain", "setting": "[2]; 30 min", "value": 0.2, "unit": "%"}, {"measurement": "% recovered radioactivity, Liver", "setting": "[2]; 30 min", "value": 8.5, "unit": "%"}, {"measurement": "% recovered radioactivity, Brain", "setting": "[2]; 60 min", "value": 0.1, "unit": "%"}, {"measurement": "% recovered radioactivity, Liver", "setting": "[2]; 60 min", "value": 2.8, "unit": "%"}, {"measurement": "% recovered radioactivity, Brain", "setting": "[2]; 90 min", "value": 0.03, "unit": "%"}, {"measurement": "% recovered radioactivity, Liver", "setting": "[2]; 90 min", "value": 0.9, "unit": "%"}, {"measurement": "times more sensitive HL-60 cells than CHO cells", "setting": "[3]", "value": "more than 10 times"}, {"measurement": "dose required / activity against glycolipid biosynthesis", "setting": "[4]", "value": "0.01-0.1"}]}
{"smiles": "CCCCCCCCCCN1C[C@H](O)[C@@H](O)[C@H](O)[C@H]1CO", "note": "[N-decyl-DNJ]", "values": [{"measurement": "distribution in mouse liver (deposition and clearance)", "setting": "[2]", "value": "increased deposition and slower clearance"}, {"measurement": "inhibition of ceramide glucosyltransferase versus N-alkyl chain length", "setting": "[5]", "value": "optimal"}, {"measurement": "inhibition at times lower concentrations than N-butyl-DNJ", "setting": "[3]; HL-60 cell-based assay", "value": 50, "unit": "times"}]}
{"smiles": "CCCCCCN1C[C@H](O)[C@@H](O)[C@H](O)[C@H]1CO", "note": "[N-hexyl derivative of DNJ]", "values": [{"measurement": "dose required for activity against glycolipid biosynthesis", "setting": "[4]", "value": 0.2, "unit": "mg/mL"}]}
{"smiles": "CN1C[C@H](O)[C@@H](O)[C@H](O)[C@H]1CO", "note": "[N-methyl analog]", "values": [{"measurement": "dose required / activity against glycolipid biosynthesis", "setting": "[4]", "value": "inactive"}]}
{"smiles": "CCCCCCCCCN1C[C@H](O)[C@@H](O)[C@H](O)[C@H]1CO", "note": "[N-nonyl-DNJ, N-nonyl-1.5-dideoxy-1,5-imino-D-glucitol]", "values": [{"measurement": "increase of cell-associated radioactivity versus N-butyl-DNJ", "setting": "[6]", "value": "3.5-5 fold"}, {"measurement": "% recovered radioactivity, Brain", "setting": "[2]; 30 min", "value": 0.4, "unit": "%"}, {"measurement": "% recovered radioactivity, Liver", "setting": "[2]; 30 min", "value": 27.1, "unit": "%"}, {"measurement": "% recovered radioactivity, Brain", "setting": "[2]; 60 min", "value": 0.3, "unit": "%"}, {"measurement": "% recovered radioactivity, Liver", "setting": "[2]; 60 min", "value": 12.6, "unit": "%"}, {"measurement": "% recovered radioactivity, Brain", "setting": "[2]; 90 min", "value": 0.4, "unit": "%"}, {"measurement": "% recovered radioactivity, Liver", "setting": "[2]; 90 min", "value": 13.5, "unit": "%"}, {"measurement": "distribution in mouse liver (deposition and clearance)", "setting": "[2]", "value": "increased deposition and slower clearance"}, {"measurement": "binding to serum protein", "setting": "[1]", "value": "favor equally, protein and solution phase"}, {"measurement": "times more sensitive HL-60 cells than CHO cells", "setting": "[3]", "value": 100, "unit": "times"}, {"measurement": "inhibition of Hepatitis B virus", "setting": "[7]", "value": "effective as an inhibitor"}]}
